pIC50: −log10 of the molar value. Entries after “also recorded” stand apart in the source; their conditions may differ. Where two headings read alike, the source gives them in different places. One block for each compound: values may come before it.
Experiments:
[1] = in vivo; cited from earlier work
[2] = system: RAW 264.7 cells; experiment: cells; settings: Mus musculus, RAW264.7, 24 h, read-out: IC50, inhibition of NO formation
Protocol: (§1) Cells were treated with various concentrations of sulforaphane and either IFNγ (10 ng/ml) or lipopolysaccharide (LPS; 3 ng/ml) for 24 h. NO in the medium was measured as nitrite by the Griess reaction (A), and iNOS induction was detected by Northern (B) and Western (C) blotting.

[3] = system: HaCaT cells; settings: HaCaT cells at concentrations giving >10-fold NQO1 induction
[4] = system: myeloperoxidase (MPO); experiment: Skin myeloperoxidase (MPO) after 311-nm UV radiation; assay type: in vivo, SKH-1 hairless mice; settings: three topical doses at 24-h intervals, 700 mJ/cm^2 311-nm UV 24 h after last dose
Protocol: (§2) The backs of SKH-1 hairless mice were treated topically with three doses at 24-h intervals of: (i) broccoli sprout extract containing 0.5 μmol of sulforaphane in 50 μl of 80% acetone/20% water (vol/vol) applied to the caudal area, and (ii) solvent applied to the rostral area. The animals received 700 mJ/cm^2 of 311-nm UV radiation 24 h after the last dose and were euthanized 24 h later, and their dorsal skin was harvested. (A) Fresh frozen 9-μm-thick sections of skin were fixed with paraformaldehyde and stained with H&E. (Scale bar 100 μm). (B) Mice were irradiated with a range of doses of UV radiation and euthanized 24 h later. (C) MPO-specific activity was measured in supernatant fractions of total homogenates prepared from liquid nitrogen-frozen and pulverized dorsal skin, and its protein levels were detected by Western blots with anti-MPO antibody (Hycult Biotechnology, Uden, The Netherlands). […] (D and E) MPO-specific (D) and NQO1-specific (E) activities were measured in supernatant fractions of total skin homogenates from mice treated with solvent (black bars), sulforaphane (gray bars), and broccoli sprout extract (white bars) and are expressed as ratios of each treatment to the non-irradiated control. Average values±SD are shown. Eight animals were used in the control group, and four in each of the treatment groups.

[5] = system: iNOS; settings: IFN-γ 10 ng/ml or LPS 3 ng/ml overnight
Protocol: as §1
RAW 264.7 macrophages (2×10^6 cells/well) were incubated with sulforaphane and either 10 ng/ml of IFN-γ or 3 ng/ml of LPS overnight. For Northern blots, total RNA was isolated with Trizol reagent (Invitrogen) and prepared for blotting as previously described (33). Probes for iNOS and GAPDH were radiolabeled with […] with random primers. For Western blots, total cell lysates were subjected to SDS/PAGE, transferred to a membrane, and probed with iNOS and β-actin antibodies (Santa Cruz Biotechnology).

[6] = system: UVB-pretreated high-risk mice; experiment: UVB radiation-induced skin carcinogenesis in high-risk mice, dietary administration; assay type: in vivo; settings: for reduction of tumor multiplicity (number of tumors per mouse): diet; for reduction of tumor multiplicity (number of tumors per mouse) / reduction of tumor incidence (percent animals with tumors): 13 weeks; for number of tumors per mouse: control 4.3
Protocol: Seeds of broccoli (Brassica oleracea italica, cv. DeCicco) were used to grow sprouts as described in Example 1. Growth was arrested after 3 days by plunging sprouts into boiling water and allowed to boil for ˜30 min. This treatment inactivated the endogenous sprout myrosinase and extracted the glucosinolates. […] The powder was mixed with the mouse diet (powdered AIN 76A) to give the equivalent of 10 μmol (low dose) or 50 μmol (high dose) of glucoraphanin per 3 grams of diet.
Body weights and formation of tumors larger than 1 mm in diameter were determined weekly.
UVB radiation was provided by a bank of UV lamps (FS72T12-UVB-HO, National Biological Corporation, Twinsburg, Ohio) emitting UVB (280-320 nm, 65% of total energy) and UVA (320-375 nm, 35% of total energy). The radiant dose of UVB was quantified with a UVB Daavlin Flex Control Integrating Dosimeter and further calibrated with an IL-1400 radiometer (International Light, Newburyport, Mass.).
The animals were irradiated for 20 weeks on Tuesdays and Fridays with a radiant exposure of 30 mJ/cm^2/session. One week later, the mice were divided into three groups: 30 animals in each treatment group and 30 animals in the control group. The mice in the two treatment groups received a diet into which was incorporated a freeze-dried broccoli sprout extract powder. The diet of the low dose treatment group included a freeze-dried broccoli sprout extract powder equivalent to 10 μmol/day glucoraphanin, while the diet of the high dose treatment group included a freeze-dried broccoli sprout extract powder equivalent to 50 μmol/day glucoraphanin. […] The mice were fed this diet for 13 weeks.
Tumor volumes were determined by measuring the height, length, and width of each mass that was larger than 1 mm in diameter. The average of the three measurements was used as the diameter and the volume was calculated (v=4πr^3/3). All mice were euthanized on the same day and the size and multiplicity of tumors was determined. Dorsal skins were dissected using a rectangular template (2.5×5 cm) to include the entire treated areas of the mice. Skins were stapled to cardboard, photographed, and fixed in ice-cold 10% phosphate-buffered formalin at 4° C. for 24 h.
Tumor incidence was evaluated using the Kaplan-Meier survival analysis followed by both a stratified log-rank test and a Wilcoxon test, for equality of survivor functions. Tumor multiplicity was evaluated by ANOVA and comparisons were made on all treatments and on individual, paired treatments (t-test). Tumor volume was evaluated by ANOVA with treatment time as a nested variable. These calculations were performed using Stata 7.0 (College Station, Tex.). Other statistics were calculated using Excel.

[7] = system: NQO1; experiment: Skin NQO1 specific activity after 311-nm UV radiation; assay type: in vivo, SKH-1 hairless mice; settings: three topical doses at 24-h intervals, 700 mJ/cm^2 311-nm UV 24 h after last dose
Protocol: as §2

[8] = system: quinone reductase (NQO1); settings: 48 h exposure; for intracellular level of NQO1: serial dilutions
Protocol: (§3) Cells (20,000 per well) were plated on 96-well plates and exposed to a series of concentrations of sulforaphane. GSH and NQO1 levels were measured in cell lysates after 24 h and 48 h, respectively. Each data point represents the average of the measurements from 8 different wells.
(§4) HaCaT human keratinocytes (a gift from G. Tim Bowden, Arizona Cancer Center, Tucson) were cultured in Dulbecco's modified Eagle's medium (DMEM) supplemented with 5% FBS; and PE murine keratinocytes (a gift from Stuart H. Yuspa, National Cancer Institute, Bethesda, Md.) were cultured in Eagle's minimum essential medium (EMEM) with 8% FBS, treated with Chelex resin (Bio-Rad) to remove Ca^2+.
(§5) Cells (20,000 per well) were grown for 24 h in 96-well plates, then exposed to serial dilutions of sulforaphane for either 24 h (for glutathione determination) or 48 h (for NQO1 determination), and finally lysed in 0.08% digitonin. An aliquot (25 μl) was used for protein analysis. Activity of NQO1 was determined by the Prochaska test (29,30). To measure the intracellular glutathione levels, 25 μl of cell lysate received 50 μl of ice-cold metaphosphoric acid (50 g/liter) in 2 mM EDTA to precipitate cellular protein. After 10 min at 4° C., plates were centrifuged at 1,500 g for 15 min and 50 μl of the resulting supernatant fractions were transferred to a parallel plate. To each of these wells, 50 μl of 200 mM sodium phosphate buffer, pH 7.5, containing 10 mM EDTA, were added and total cellular glutathione was determined by rate measurements in a recycling assay (31,32).

[9] = system: glutathione; settings: 24 h exposure, serial dilutions
Protocol: as §3, §4, §5

[10] = system: glutathione; settings: topical, extract containing 1 μmol sulforaphane, skin 24 h later, vs vehicle
Description: (§6) The phase 2 response was next evaluated in vivo in […] hairless mice. Female SKH-1 hairless mice (4 weeks old) were obtained from Charles River Breeding Laboratories (Wilmington, Mass.) and were acclimatized in our animal facility for 2 weeks before the start of the experiment. The animals were kept on a 12-h light/12-h dark cycle, 35% humidity, and given free access to water and pelleted AIN 76A diet (Harlan TekLad, free of inducers). All animal experiments were in compliance with the National Institutes of Health Guidelines and were approved by the Johns Hopkins University Animal Care and Use Committee.
(§7) Seven-week-old SKH-1 hairless mice (5 per group) were treated topically on their backs with either 100 μl of a standardized myrosinase-hydrolyzed broccoli sprout extract containing 1 μmol of sulforaphane, or vehicle (100 μl of 80% acetone:20% water, v/v). The animals were euthanized 24 h later and their dorsal skins were dissected using a rectangular template (2.5×5 cm) and frozen in liquid N2. Skin samples were pulverized in liquid N2 and 100 mg of the resulting powder was homogenized in 1 ml of either 0.25 M sucrose buffered with 10 mM Tris-HCl, pH 7.4, for analysis of NQO1 enzymatic activity and protein content, or ice-cold metaphosphoric acid (50 g/liter) in 2 mM EDTA for analysis of glutathione. […]

[11] = system: NQO1; settings: topical, extract containing 1 μmol sulforaphane, skin 24 h later, vs vehicle
Description: as §6, §7

[12] = system: PE murine keratinocytes; settings: 5 μM for 24 h, UVA 10 J/cm^2, PE cells
Protocol: Cells (50,000 per well) were plated on 24-well plates, treated with 5 μM sulforaphane for 24 h, washed with DPBS, and then exposed to UVA (10 J/cm^2). Reactive oxygen intermediates generated by the UV radiation were quantified by the fluorescent probe 2′,7′-dichlorodinitrofluorescein and fluorescence intensity was measured (expressed as a ratio of exposed to non-exposed cells).
PE cells (50,000 per well) were seeded into 24-well plates and grown for 48 h. The cells were then exposed to 1 μM or 5 μM sulforaphane for 24 h. On the day of the experiments, after removing the medium, the cells were incubated with 100 μM 2′,7′-dichlorodinitrofluorescein diacetate in 500 μl of fresh medium (Molecular Probes, Eugene, Oreg.) for 30 min. The medium containing the fluorescent probe was then removed, the cells were washed with DPBS, and exposed to UVA radiation (10 J/cm^2). Control cells were kept in the dark. Cells were detached with trypsin, suspended in 2.0 ml of DPBS, and the intensity of fluorescence was determined in cell suspensions at 520 nm with an excitation of 485 nm in 2-ml cuvettes in a Perkin-Elmer LS50 spectrofluorimeter.

[13] = mice, dietary; cited from earlier work
[14] = Plasma levels of sulforaphane and its metabolites after chronic dietary treatment; assay type: in vivo, mice
Description: These levels are adequate to expect biological effects.

Structure (SMILES): C[S+]([O-])CCCCN=C=S (stereo not shown) [sulforaphane, 4-methylsulfinylbutyl isothiocyanate]
tissue half-life [1]: 1 to 2 h | pIC50 [2]: 6.52 | cytotoxicity [3]: without any apparent evidence of cytotoxicity | UV radiation-induced MPO protein and enzyme activity [4]: suppressed the increases of MPO protein and enzyme activity levels; also recorded: equivalent protection against the UV radiation-induced MPO elevation | synthesis of iNOS mRNA ([5]; Northern blot): inhibited | synthesis of iNOS protein ([5]; Western blot): inhibited | reduction of tumor multiplicity (number of tumors per mouse) ([6]; high dose 50 μmol/day): 72% | reduction of tumor multiplicity (number of tumors per mouse) ([6]; low dose 10 μmol/day): 47% | NQO1 specific activity in skin homogenates [7]: increased the specific activities; also recorded: restoration of the UV radiation decreased NQO1 levels | magnitude of NQO1 induction ([8]; HaCaT cells): > 10 fold | intracellular level of NQO1 ([8]; HaCaT human keratinocytes): increased in a dose-dependent manner | intracellular level of NQO1 ([8]; PE murine keratinocytes): increased in a dose-dependent manner | intracellular level of glutathione ([9]; HaCaT human keratinocytes): increased in a dose-dependent manner | intracellular level of glutathione ([9]; PE murine keratinocytes): increased in a dose-dependent manner | elevation of the total glutathione levels [10]: ~15% | induction of NQO1 [11]: ~50% | reduction in reactive oxygen intermediates generated by the UV radiation [12]: 50%

plasma levels of sulforaphane and its metabolites ([14]; high dose 50 μmol/day glucoraphanin): 2.5 µM | plasma levels of sulforaphane and its metabolites ([14]; low dose 10 μmol/day glucoraphanin): 2.2 µM
Structure (SMILES): C[S+]([O-])CCCC/C(=N\OS(=O)(=O)O)S[C@@H]1O[C@H](CO)[C@@H](O)[C@H](O)[C@H]1O (stereo partly shown) [glucoraphanin]
fraction converted to sulforaphane upon ingestion [13]: about 10% | inhibition in the total tumor volume per mouse ([6]; high dose 50 μmol/day): 70% | reduction of tumor incidence (percent animals with tumors) ([6]; high dose 50 μmol/day glucoraphanin as freeze-dried broccoli sprout extract powder in diet): 35% | reduction of tumor multiplicity (number of tumors per mouse) ([6]; high dose 50 μmol/day): 72% | number of tumors per mouse ([6]; high dose 50 μmol/day): 1.2 | inhibition in the total tumor volume per mouse ([6]; low dose 10 μmol/day): 70% | reduction of tumor incidence (percent animals with tumors) ([6]; low dose 10 μmol/day glucoraphanin as freeze-dried broccoli sprout extract powder in diet): 25% | reduction of tumor multiplicity (number of tumors per mouse) ([6]; low dose 10 μmol/day): 47% | number of tumors per mouse ([6]; low dose 10 μmol/day): 2.3
